Measurements reported in ChEMBL document CHEMBL1147236, “Semiplenamides A-G, fatty acid amides from a Papua New Guinea collection of the marine cyanobacterium Lyngbya semiplena” (J Nat Prod, 2003).

Tests used:
[1] = Toxicity in Artemia salina after 24 hrs; type: organism-based; conditions: in vivo, read-out: LD50
[2] = target: Cannabinoid receptor 1 (Rattus norvegicus, UniProt P20272); experiment: Displacement of [3H]SR141716A from CB1 receptor in CD rat brain membranes; type: cell membranes, Membrane
[3] = Inhibition of AMT in rat RBL-2H3 cells assessed as [14C]anandamide uptake; type: cell-based

Sequence of Cannabinoid receptor 1 (P20272 whole entry): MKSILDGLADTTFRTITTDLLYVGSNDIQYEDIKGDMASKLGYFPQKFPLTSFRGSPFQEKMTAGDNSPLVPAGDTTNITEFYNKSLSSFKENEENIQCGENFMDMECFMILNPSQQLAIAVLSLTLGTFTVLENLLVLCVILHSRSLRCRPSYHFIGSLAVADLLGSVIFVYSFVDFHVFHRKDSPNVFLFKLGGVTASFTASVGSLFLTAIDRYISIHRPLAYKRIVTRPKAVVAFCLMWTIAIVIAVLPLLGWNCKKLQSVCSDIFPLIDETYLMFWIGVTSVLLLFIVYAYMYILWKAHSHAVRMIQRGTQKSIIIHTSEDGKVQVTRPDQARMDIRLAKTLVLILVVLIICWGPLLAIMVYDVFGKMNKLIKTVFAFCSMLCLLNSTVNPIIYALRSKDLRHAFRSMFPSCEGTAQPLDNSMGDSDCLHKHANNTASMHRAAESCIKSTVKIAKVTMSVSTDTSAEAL

## CCCCCCCCCCCCCCC[C@H]1O[C@]1(C)C(=O)NC(C)CO (stereo partly specified) [SEMIPLENAMIDE F]
[1]
  LC50 at 24 h: 1.4 µM

## CCCCCCCCCCCCCCC/C=C(\C)C(=O)N[C@@H](C)COC(C)=O [SEMIPLENAMIDE E]
[1]
  LC50 at 24 h: 19 µM

## CCCCCCCCCCCCCCC[C@H]1O[C@]1(C)C(=O)NC(C)COC(C)=O (stereo partly specified) [SEMIPLENAMIDE G]
[2]
  Ki: 17.9 µM
[1]
  LC50 at 24 h: 2.4 µM

## CCCCCCCCCCCCCCCCC/C=C(\C)C(=O)N[C@@H](C)COC(C)=O [SEMIPLENAMIDE D]
[1]
  LC50 at 24 h: 18 µM

## CCCCCCCCCCCCC/C=C/CC/C=C(\C)C(=O)NCCOC(C)=O [SEMIPLENAMIDE B]
[2]
  Ki: 18.7 µM
[1]
  LC50 at 24 h: 2.5 µM

## CCCCCCCCCCCCC/C=C(\C)C(=O)N[C@@H](C)CO [SEMIPLENAMIDE C]
[1]
  LC50 at 24 h: 1.5 µM

## CCCCCCCCCCCCC/C=C/CC/C=C(\C)C(=O)NCCO [SEMIPLENAMIDE A]
[2]
  Ki: 19.5 µM
[1]
  LC50 at 24 h: 1.4 µM
[3]
  IC50: 18.1 µM
